# Active and inactive are the calls of the source. The calls are words filed in the database; no cut-off is given here. Where a SMILES comes first, the peptide text is derived from it. [ ]: non-standard residue; d: D form. N(tridecyl)Gly = CCCCCCCCCCCCCNCC(=O)O; Gly(N-2-aminoethyl) = NCCNCC(=O)O; Gly(N-cHex) = O=C(O)CNC1CCCCC1; Nlys = NCCCCNCC(=O)O; Sar = CNCC(=O)O
# Columns and labels:
# [1] = Selectivity ratio of TD50 for human HepG2 cells to MIC for Cryptococcus neoformans H99S; type: toxicity
# Cryptococcus neoformans [2] = test: Antifungal activity against Cryptococcus neoformans H99S assessed as inhibition of fungal growth measured after 72 hrs by Plate reader assay; type: functional
# [3] = Cytotoxicity against human HepG2 cells assessed as cell death measured after 72 hrs by MTT assay; type: cell-based; details: read-out: TD50
# Cryptococcus neoformans [4] = test: Antifungal activity against Cryptococcus neoformans assessed as assessed as half life for fungal killing; type: functional, organism-based
# Cryptococcus neoformans [5] = test: Indifferent antifungal activity against Cryptococcus neoformans H99S assessed as fractional inhibitory concentration index incubated for 72 hrs in presence of 0.25 to 16 ug/ml flucytosine by checkerboard microdilution assay; type: functional
# [6] = Selectivity ratio of TD50 for human HaCaT cells to MIC for Cryptococcus neoformans H99S; type: toxicity
# Enterococcus faecium = test: Antibacterial activity against Enterococcus faecium ATCC 6569 assessed as inhibition of bacterial growth measured after 24 hrs by Plate reader method; type: functional
# [7] = Antifungal activity against Cryptococcus gattii R265 ATCC MYA-4093 assessed as inhibition of fungal growth measured after 72 hrs by Plate reader assay; type: functional, Cryptococcus gattii VGI
# [8] = Protein binding in human serum at 100 ug/ml measured after 24 hrs by RP-HPLC method; type: ADME, cell-free; details: at 100 µg/mL
# [9] = Cytotoxicity against human HPL1A cells assessed as cell death measured after 72 hrs by MTT assay; type: cell-based; details: read-out: TD50
# [10] = Selectivity ratio of TD50 for human HPL1A cells to MIC for Cryptococcus neoformans H99S; type: toxicity
# Cryptococcus neoformans [11] = test: Antifungal activity against Cryptococcus neoformans H99S assessed as half life for fungal killing at 12.5 ug/ml by Plate reader assay; type: functional, organism-based; details: dose 12.5 µg/ml
# [12] = Selectivity ratio of HC10 for human RBC to MIC for Cryptococcus neoformans H99S; type: toxicity; details: red blood cells (RBC)
# Pseudomonas aeruginosa = test: Antibacterial activity against Pseudomonas aeruginosa ATCC 25619 assessed as inhibition of bacterial growth measured after 24 hrs by Plate reader method; type: functional
# [13] = Selectivity ratio of MIC for Cryptococcus gattii R272 ATCC MYA-4094 to MIC for Cryptococcus neoformans H99S measured after 72 hrs by Plate reader assay; type: functional
# [14] = Cytotoxicity against mouse 3T3 cells assessed as cell death measured after 72 hrs by MTT assay; type: cell-based; details: read-out: TD50
# Cryptococcus neoformans [15] = test: Antifungal activity against Cryptococcus neoformans H99S assessed as dead cells at 12.5 ug/ml measured after 30 mins by time-to-kill assay; type: functional; details: dose 12.5 µg/ml, 0.5 h
# Cryptococcus neoformans [16] = test: Antifungal activity against Cryptococcus neoformans H99S assessed as inhibition of fungal growth preincubated with human serum for 1 hr followed by incubation with fungus and measured after 72 hrs by Plate reader method; type: functional; details: time 73 hrs
# [17] = Selectivity ratio of MIC for Cryptococcus gattii R265 ATCC MYA-4093 to MIC for Cryptococcus neoformans H99S measured after 72 hrs by Plate reader assay; type: functional
# Cryptococcus neoformans [18] = test: Antifungal activity against Cryptococcus neoformans H99S assessed as elimination of viable cells at 12.5 ug/ml measured after 1 hr by Plate reader assay; type: functional; details: dose 12.5 µg/ml
# Staphylococcus aureus = test: Antibacterial activity against Staphylococcus aureus ATCC 29213 assessed as inhibition of bacterial growth measured after 24 hrs by Plate reader method; type: functional
# Cryptococcus neoformans [19] = test: […] antifungal activity against Cryptococcus neoformans H99S assessed as fractional inhibitory concentration index incubated for 72 hrs in presence of 0.03 to 2 ug/ml Amphotericin B by checkerboard microdilution assay; type: functional
# Klebsiella pneumoniae = test: Antibacterial activity against Klebsiella pneumoniae ATCC 13883 assessed as inhibition of bacterial growth measured after 24 hrs by Plate reader method; type: functional
# Acinetobacter baumannii = test: Antibacterial activity against Acinetobacter baumannii ATCC 19606 assessed as inhibition of bacterial growth measured after 24 hrs by Plate reader method; type: functional; details: ATCC 19606 = CIP 70.34 = JCM 6841
# Candida albicans [20] = test: Antifungal activity against Candida albicans ATCC10231 assessed as inhibition of biofilm formation measured after 24 hrs by fluorescence based plate reader assay; type: functional
# Cryptococcus neoformans [21] = test: Indifferent antifungal activity against Cryptococcus neoformans H99S assessed as fractional inhibitory concentration index incubated for 72 hrs in presence of 0.5 to 32 ug/ml fluconazole by checkerboard microdilution assay; type: functional
# Lipid bilayer = test: Induction of membrane disruption in calcein loaded PC:PE:PS:Ergosterol (4:2:1:0.1) liposomes mimicking Cryptococcus neoformans H99S membrane assessed as increase in fluorescence intensity measured after 1 hr by liposome assay
# Cryptococcus neoformans [22] = test: Fungicidal activity against Cryptococcus neoformans H99S assessed as fungal killing at 12.5 ug/ml measured after drug wash-out; type: functional, organism-based; details: dose 12.5 µg/ml
# Erythrocyte = test: Hemolytic activity in human RBC measured after 1 hr by microplate reader method; type: ADME, cell-based
# [23] = Stability of compound assessed as trypsin-mediated compound degradation at 2 mg/ml measured after 24 hrs by RP-HPLC method; type: ADME; details: isolated protein
# Enterococcus faecalis = test: Antibacterial activity against Enterococcus faecalis ATCC 29212 assessed as inhibition of bacterial growth measured after 24 hrs by Plate reader method; type: functional
# [24] = Antifungal activity against Cryptococcus gattii R272 ATCC MYA-4094 assessed as inhibition of fungal growth measured after 72 hrs by Plate reader assay; type: functional, Cryptococcus gattii VGI
# [25] = Cytotoxicity against human HaCaT cells assessed as cell death measured after 72 hrs by MTT assay; type: cell-based; details: read-out: TD50
# Candida albicans [26] = test: Antifungal activity against Candida albicans ATCC10231 assessed as inhibition of fungal growth measured after 24 hrs by Plate reader assay; type: functional
# [27] = Selectivity ratio of TD50 for mouse 3T3 cells to MIC for Cryptococcus neoformans H99S; type: toxicity
# Escherichia coli = test: Antibacterial activity against Escherichia coli ATCC 25922 assessed as inhibition of bacterial growth measured after 24 hrs by Plate reader method; type: functional
# [28] = tested on: Mycolicibacterium smegmatis; test: Antibacterial activity against Mycobacterium smegmatis assessed as inhibition of bacterial growth measured after 72 hrs by Plate reader method; type: functional
smiles,measurement,setting,value
CCCCCCCCCCCCCNCC(=O)N(CC(=O)N(C)CC(=O)N(CCN)CC(=O)N(CC(N)=O)C1CCCCC1)C1CCCCC1,selectivity ratio,[1],27
same,MIC,Cryptococcus neoformans [2],3.13 µg/mL
same,CC50 at 72 h,[3],83 µg/mL
CNCC(=O)N(CC(=O)N(CCCCN)CC(=O)N(CCN)CC(=O)N(CC(N)=O)C1CCCCC1)C1CCCCC1 (H-[Sar][Gly(N-cHex)][Nlys][Gly(N-2-aminoethyl)][Gly(N-cHex)]-NH2),MIC,Cryptococcus neoformans [2],> 50 µg/mL
same,CC50 at 72 h,[3],> 200 µg/mL
CCCCCCCCCCCCCNCC(=O)N(CCCCN)CC(=O)N(CC(N)=O)Cc1ccco1,T1/2,Cryptococcus neoformans [4],0.5 h
CCCCCCCCCCCCCNCC(=O)N(CC(=O)N(CCCCN)CC(=O)N(C)CC(=O)N(CC(N)=O)C1CCCCC1)C1CCCCC1 (H-[N(tridecyl)Gly][Gly(N-cHex)][Nlys][Sar][Gly(N-cHex)]-NH2),selectivity ratio,[1],27
same,MIC,Cryptococcus neoformans [2],3.13 µg/mL
same,CC50 at 72 h,[3],84 µg/mL
OC(Cn1cncn1)(Cn1cncn1)c1ccc(F)cc1F [FLUCONAZOLE],MIC,Cryptococcus neoformans [2],2 µg/mL
C[C@@H]1[C@H](O)[C@@H](C)/C=C/C=C/C=C/C=C/C=C/C=C/C=C/[C@H](O[C@@H]2O[C@H](C)[C@@H](O)[C@H](N)[C@@H]2O)C[C@@H]2O[C@](O)(C[C@@H](O)C[C@@H](O)[C@H](O)CC[C@@H](O)C[C@@H](O)CC(=O)O[C@H]1C)C[C@H](O)[C@H]2C(=O)O [AMPHOTERICIN B],MIC,Cryptococcus neoformans [2],0.25 µg/mL
same,T1/2,Cryptococcus neoformans [4],4 h
CCCCCCCCCCCCCNCC(=O)N(C)CC(=O)N(CCCCN)CC(=O)N(CCN)CC(=O)N(CC(N)=O)C1CCCCC1 (H-[N(tridecyl)Gly][Sar][Nlys][Gly(N-2-aminoethyl)][Gly(N-cHex)]-NH2),MIC,Cryptococcus neoformans [2],6.25 µg/mL
same,CC50 at 72 h,[3],> 200 µg/mL
CCCCCCCCCCCCCNCC(=O)N(CC(=O)N(CCCCN)CC(=O)N(CCN)CC(=O)N(CC(N)=O)C1CCCCC1)C1CCCCC1 (H-[N(tridecyl)Gly][Gly(N-cHex)][Nlys][Gly(N-2-aminoethyl)][Gly(N-cHex)]-NH2),fractional inhibitory concentration index (FICI),Cryptococcus neoformans [5],2
same,selectivity ratio,[6],35
same,MIC,Enterococcus faecium,6.25 µg/mL
same,MIC,[7],3.13 µg/mL
same,PB,[8],Not Active
same,CC50 at 72 h,[9],74 µg/mL
same,selectivity ratio,[10],47
same,selectivity ratio,[1],120
same,MIC,Cryptococcus neoformans [2],1.56 µg/mL
same,T1/2,Cryptococcus neoformans [11],6.5 min
same,selectivity ratio,[12],49
same,MIC,Pseudomonas aeruginosa,100 µg/mL
same,Selectivity ratio,[13],2
same,CC50 at 72 h,[14],59 µg/mL
same,Activity,Cryptococcus neoformans [15],>50%
same,MIC,Cryptococcus neoformans [16],3.13 µg/mL
same,Selectivity ratio,[17],2
same,Activity,Cryptococcus neoformans [18],100%
same,MIC,Staphylococcus aureus,6.25 µg/mL
same,fractional inhibitory concentration index (FICI),Cryptococcus neoformans [19],0.75
same,MIC,Klebsiella pneumoniae,100 µg/mL
same,MIC,Acinetobacter baumannii,25 µg/mL
same,MIC,Candida albicans [20],100 µg/mL
same,fractional inhibitory concentration index (FICI),Cryptococcus neoformans [21],2
same,Activity,Lipid bilayer,Active
same,Activity,Cryptococcus neoformans [22],Active
same,HC10,Erythrocyte,77 µg/mL
same,Stabilty,[23],Stable
same,MIC,Enterococcus faecalis,6.25 µg/mL
same,MIC,[24],3.13 µg/mL
same,CC50 at 72 h,[25],54 µg/mL
same,MIC,Candida albicans [26],25 µg/mL
same,selectivity ratio,[27],38
same,MIC,Escherichia coli,12.5 µg/mL
same,MIC,[28],3.13 µg/mL
same,CC50 at 72 h,[3],189 µg/mL
CCCCCCCCCCCCCNCC(=O)N(CC(=O)N(CCCCN)CC(=O)N(CCN)CC(=O)N(C)CC(N)=O)C1CCCCC1 (H-[N(tridecyl)Gly][Gly(N-cHex)][Nlys][Gly(N-2-aminoethyl)][Sar]-NH2),MIC,Cryptococcus neoformans [2],6.25 µg/mL
same,CC50 at 72 h,[3],> 200 µg/mL
Nc1nc(=O)[nH]cc1F [FLUCYTOSINE],MIC,Cryptococcus neoformans [2],2 µg/mL
